From PMC4999848 (Toxins, 2016)

Legend:
[1] = test system: human cell lines (Caco-2, HepG2, T84, A498); test: cells; assay type: in vitro ADME; settings: read-out: % inhibition of deacetylation of 3/15ADON
CES in T84 cells = test: CES activity on pNPA, T84 cells
CES in A498 cells = test: CES activity on pNPA, A498 cells
CES in HepG2 cells = test: CES activity on pNPA, HepG2 cells
CES in Caco-2 cells = test: CES activity on pNPA, Caco-2 cells
recombinant human CES1 = biological target: T1, recombinant human CES1 (Homo sapiens, UniProt P23141); test: CES activity on pNPA, recombinant CES1
T1 sequence (P23141 18-567): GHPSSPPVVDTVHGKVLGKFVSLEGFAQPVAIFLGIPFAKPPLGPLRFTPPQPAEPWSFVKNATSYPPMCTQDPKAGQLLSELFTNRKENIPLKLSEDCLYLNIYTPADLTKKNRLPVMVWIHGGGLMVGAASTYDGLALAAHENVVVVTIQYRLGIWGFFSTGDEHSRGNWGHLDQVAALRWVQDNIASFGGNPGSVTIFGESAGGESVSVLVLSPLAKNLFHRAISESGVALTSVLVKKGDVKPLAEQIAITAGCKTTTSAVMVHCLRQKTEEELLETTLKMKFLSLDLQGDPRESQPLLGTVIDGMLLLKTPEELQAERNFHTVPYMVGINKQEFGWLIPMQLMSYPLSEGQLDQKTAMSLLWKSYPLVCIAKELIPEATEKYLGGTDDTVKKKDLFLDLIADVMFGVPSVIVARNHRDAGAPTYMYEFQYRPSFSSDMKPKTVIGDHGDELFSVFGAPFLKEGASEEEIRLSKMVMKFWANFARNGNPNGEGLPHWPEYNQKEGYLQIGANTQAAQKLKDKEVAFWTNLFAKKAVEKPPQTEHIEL

CES in S9 Liver = test: CES activity on pNPA, liver S9 fraction
CES in S9 Kidney = test: CES activity on pNPA, kidney S9 fraction
CES in S9 Intestine = test: CES activity on pNPA, intestine S9 fraction
recombinant human CES2 = biological target: T2, recombinant human CES2 (Homo sapiens, UniProt O00748); test: CES activity on pNPA, recombinant CES2; settings: CES2, pNPA 1 mM
T2 sequence (O00748 27-559): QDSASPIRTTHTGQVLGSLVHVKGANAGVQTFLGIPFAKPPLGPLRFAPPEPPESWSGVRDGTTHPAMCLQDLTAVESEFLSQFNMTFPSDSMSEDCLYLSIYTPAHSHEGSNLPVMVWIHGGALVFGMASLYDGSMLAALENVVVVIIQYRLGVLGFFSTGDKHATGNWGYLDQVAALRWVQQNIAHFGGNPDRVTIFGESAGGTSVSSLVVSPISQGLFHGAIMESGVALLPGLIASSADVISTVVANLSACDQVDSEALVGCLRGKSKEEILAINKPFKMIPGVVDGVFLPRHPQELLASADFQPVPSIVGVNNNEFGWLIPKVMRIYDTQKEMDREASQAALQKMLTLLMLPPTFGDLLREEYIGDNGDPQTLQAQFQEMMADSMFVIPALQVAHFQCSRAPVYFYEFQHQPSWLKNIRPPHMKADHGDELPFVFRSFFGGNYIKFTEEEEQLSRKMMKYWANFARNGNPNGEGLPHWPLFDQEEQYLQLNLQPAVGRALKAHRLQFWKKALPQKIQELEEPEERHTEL

`O=C(C(=O)c1ccccc1)c1ccccc1` [benzil] was tested, and the inhibition at 100 µM [1] was 10 to 20%, the “% of Inhibition of pNPA deacetylation” value (CES in T84 cells; T84, benzil 100 μM) was 85 ± 14% and the “% of Inhibition of pNPA deacetylation” value (CES in A498 cells; A498, benzil 100 μM) was 83 ± 16%. The “% of Inhibition of pNPA deacetylation” value (CES in HepG2 cells; HepG2, benzil 100 μM) was 87 ± 12%, the “% of Inhibition of pNPA deacetylation” value (CES in Caco-2 cells; Caco-2, benzil 100 μM) was 83 ± 16% and the inhibition at 100 µM (recombinant human CES1; read-out: % of Inhibition of pNPA deacetylation) was 96 ± 3.3%. The “% of Inhibition of pNPA deacetylation” value (CES in S9 Liver; benzil 100 μM) was 85 ± 14%, the “% of Inhibition of pNPA deacetylation” value (CES in S9 Kidney; benzil 100 μM) was 88 ± 11% and the “% of Inhibition of pNPA deacetylation” value (CES in S9 Intestine; benzil 100 μM) was 84 ± 15%.

With `CC(=O)Oc1ccc([N+](=O)[O-])cc1` [pNPA, para-nitrophenyl acetate] the “Specific activity on pNPA, Without Benzil” value (CES in T84 cells; T84, pNPA 1 mM, 37 °C) was 6.6 ± 0.7 nmol of pNPA hydrolyzed per minute and per mg of protein, the “Specific activity on pNPA, With Benzil” value (CES in T84 cells; T84, pNPA 1 mM, benzil 100 μM) was 0.9 ± 0.2 nmol of pNPA hydrolyzed per minute and per mg of protein and the “Specific activity on pNPA, With Benzil” value (CES in A498 cells; A498, pNPA 1 mM, benzil 100 μM) was 1.1 ± 0.1 nmol of pNPA hydrolyzed per minute and per mg of protein. For the same molecule, the “Specific activity on pNPA, Without Benzil” value (CES in HepG2 cells; HepG2, pNPA 1 mM, 37 °C) was 15.7 ± 1.1 nmol of pNPA hydrolyzed per minute and per mg of protein, the “Specific activity on pNPA, With Benzil” value (CES in HepG2 cells; HepG2, pNPA 1 mM, benzil 100 μM) was 2.1 ± 0.1 nmol of pNPA hydrolyzed per minute and per mg of protein and the “Specific activity on pNPA, Without Benzil” value (CES in Caco-2 cells; Caco-2, pNPA 1 mM, 37 °C) was 6.2 ± 1.8 nmol of pNPA hydrolyzed per minute and per mg of protein. The “Specific activity on pNPA, With Benzil” value (CES in Caco-2 cells; Caco-2, pNPA 1 mM, benzil 100 μM) was 1.1 ± 0.1 nmol of pNPA hydrolyzed per minute and per mg of protein, the “Specific activity on pNPA, Without Benzil” value (recombinant human CES1; CES1, pNPA 1 mM, 37 °C) was 4965 ± 197 nmol of pNPA hydrolyzed per minute and per mg of protein and the “Specific activity on pNPA, With Benzil” value (recombinant human CES1; CES1, pNPA 1 mM, benzil 100 μM) was 167 ± 10 nmol of pNPA hydrolyzed per minute and per mg of protein. The “Specific activity on pNPA, Without Benzil” value (recombinant human CES2; 37 °C) was 5671 ± 207 nmol of pNPA hydrolyzed per minute and per mg of protein, the “Specific activity on pNPA, With Benzil” value (recombinant human CES2; benzil 100 μM) was 214 ± 43 nmol of pNPA hydrolyzed per minute and per mg of protein and the “Specific activity on pNPA, Without Benzil” value (CES in S9 Liver; pNPA 1 mM, 37 °C) was 142 ± 4.6 nmol of pNPA hydrolyzed per minute and per mg of protein. The “Specific activity on pNPA, With Benzil” value (CES in S9 Liver; pNPA 1 mM, benzil 100 μM) was 21 ± 2.2 nmol of pNPA hydrolyzed per minute and per mg of protein, the “Specific activity on pNPA, Without Benzil” value (CES in S9 Kidney; pNPA 1 mM, 37 °C) was 69 ± 7.6 nmol of pNPA hydrolyzed per minute and per mg of protein and the “Specific activity on pNPA, With Benzil” value (CES in S9 Kidney; pNPA 1 mM, benzil 100 μM) was 8.1 ± 1.4 nmol of pNPA hydrolyzed per minute and per mg of protein. For the same molecule, the “Specific activity on pNPA, Without Benzil” value (CES in S9 Intestine; pNPA 1 mM, 37 °C) was 55 ± 9.9 nmol of pNPA hydrolyzed per minute and per mg of protein and the “Specific activity on pNPA, With Benzil” value (CES in S9 Intestine; pNPA 1 mM, benzil 100 μM) was 8.3 ± 2.7 nmol of pNPA hydrolyzed per minute and per mg of protein.
